Test results as given in PubChem BioAssay (NCI).
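A five-concentration, 48-hour dose response in 96-well plates underlies each endpoint, interpolated linearly between surrounding concentrations. GI50 marks 50% less growth. Definition used: TGI = concentration required for complete inhibition of growth.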

Columns and labels:
Test in all cases: inhibition of tumour cell growth, NCI panel, 48 h
SK-MEL-5 melanoma = tested on: SK-MEL-5 melanoma
HL-60(TB) leukemia = tested on: HL-60(TB) leukemia
MOLT-4 leukemia = tested on: MOLT-4 leukemia
NCI-H226 lung = tested on: NCI-H226 lung
HOP-62 NSCLC = tested on: HOP-62 NSCLC
SF-539 CNS = tested on: SF-539 CNS
SF-295 CNS = tested on: SF-295 CNS
HOP-92 NSCLC = tested on: HOP-92 NSCLC
HCC-2998 colon = tested on: HCC-2998 colon
MCF7 breast = tested on: MCF7 breast
OVCAR-3 ovarian = tested on: OVCAR-3 ovarian
MDA-MB-435 = tested on: MDA-MB-435
NCI-H522 lung = tested on: NCI-H522 lung
SK-MEL-28 melanoma = tested on: SK-MEL-28 melanoma
NCI/ADR-RES ovarian = tested on: NCI/ADR-RES ovarian
EKVX NSCLC = tested on: EKVX NSCLC
UO-31 renal = tested on: UO-31 renal
SF-268 CNS = tested on: SF-268 CNS
TK-10 renal = tested on: TK-10 renal
A549 NSCLC = tested on: A549 NSCLC
SNB-75 CNS = tested on: SNB-75 CNS
SW-620 colon = tested on: SW-620 colon
MALME-3M melanoma = tested on: MALME-3M melanoma
K-562 leukemia = tested on: K-562 leukemia
M14 melanoma = tested on: M14 melanoma
KM12 colon = tested on: KM12 colon
PC-3 prostate = tested on: PC-3 prostate
OVCAR-4 ovarian = tested on: OVCAR-4 ovarian
OVCAR-5 ovarian = tested on: OVCAR-5 ovarian
DU-145 prostate = tested on: DU-145 prostate
SK-OV-3 ovarian = tested on: SK-OV-3 ovarian
SK-MEL-2 melanoma = tested on: SK-MEL-2 melanoma
U251 CNS = tested on: U251 CNS
HCT-116 colon = tested on: HCT-116 colon
UACC-62 melanoma = tested on: UACC-62 melanoma
NCI-H23 lung = tested on: NCI-H23 lung
IGROV1 ovarian = tested on: IGROV1 ovarian
CAKI-1 renal = tested on: CAKI-1 renal
T-47D breast = tested on: T-47D breast
BT-549 breast = tested on: BT-549 breast
SNB-19 CNS = tested on: SNB-19 CNS
UACC-257 melanoma = tested on: UACC-257 melanoma
A498 renal = tested on: A498 renal
RXF 393 renal = tested on: RXF 393 renal
HT29 colon = tested on: HT29 colon
OVCAR-8 ovarian = tested on: OVCAR-8 ovarian
HS 578T breast = tested on: HS 578T breast
RPMI-8226 leukemia = tested on: RPMI-8226 leukemia
ACHN renal = tested on: ACHN renal
COLO 205 colon = tested on: COLO 205 colon
SR leukemia = tested on: SR leukemia
HCT-15 colon = tested on: HCT-15 colon
MDA-MB-231 breast = tested on: MDA-MB-231 breast
786-0 renal = tested on: 786-0 renal
SN12C renal = tested on: SN12C renal
NCI-H460 lung = tested on: NCI-H460 lung

C#Cc1cc(OC)c(C(=O)Nc2ccc(F)cc2C(=O)Nc2cccc(S(=O)(=O)C(F)(F)F)c2)cn1
GI50 (SK-MEL-5 melanoma): 1240 nM | TGI (SK-MEL-5 melanoma): 2880 nM | GI50 (HL-60(TB) leukemia): 28.9 nM | TGI (HL-60(TB) leukemia): 84.5 nM | GI50 (MOLT-4 leukemia): 322 nM | TGI (MOLT-4 leukemia): 1350 nM | GI50 (NCI-H226 lung): 1720 nM | TGI (NCI-H226 lung): 8900 nM | GI50 (HOP-62 NSCLC): 38.1 nM | TGI (HOP-62 NSCLC): 212 nM | GI50 (SF-539 CNS): 99.9 nM | TGI (SF-539 CNS): 252 nM | GI50 (SF-295 CNS): 176 nM | TGI (SF-295 CNS): 333 nM | GI50 (HOP-92 NSCLC): 20.1 nM | TGI (HOP-92 NSCLC): 53.9 nM | GI50 (HCC-2998 colon): 2100 nM | TGI (HCC-2998 colon): 4640 nM | GI50 (MCF7 breast): 727 nM | TGI (MCF7 breast): > 100000 nM | GI50 (OVCAR-3 ovarian): 224 nM | TGI (OVCAR-3 ovarian): 576 nM | GI50 (MDA-MB-435): 1750 nM | TGI (MDA-MB-435): > 23800 nM | GI50 (NCI-H522 lung): 60.6 nM | TGI (NCI-H522 lung): 237 nM | GI50 (SK-MEL-28 melanoma): 2840 nM | TGI (SK-MEL-28 melanoma): > 25800 nM | GI50 (NCI/ADR-RES ovarian): 52.1 nM | TGI (NCI/ADR-RES ovarian): 340 nM | GI50 (EKVX NSCLC): 290 nM | TGI (EKVX NSCLC): 1100 nM | GI50 (UO-31 renal): 17.5 nM | TGI (UO-31 renal): 44.9 nM | GI50 (SF-268 CNS): 285 nM | TGI (SF-268 CNS): 927 nM | GI50 (TK-10 renal): 5860 nM | TGI (TK-10 renal): > 100000 nM | GI50 (A549 NSCLC): 1060 nM | TGI (A549 NSCLC): 5200 nM | GI50 (SNB-75 CNS): 190 nM | TGI (SNB-75 CNS): 529 nM | GI50 (SW-620 colon): 1130 nM | TGI (SW-620 colon): 3420 nM | GI50 (MALME-3M melanoma): 43.3 nM | TGI (MALME-3M melanoma): 130 nM | GI50 (K-562 leukemia): 666 nM | TGI (K-562 leukemia): > 100000 nM | GI50 (M14 melanoma): 1270 nM | TGI (M14 melanoma): > 28400 nM | GI50 (KM12 colon): 299 nM | TGI (KM12 colon): 1540 nM | GI50 (PC-3 prostate): 1520 nM | TGI (PC-3 prostate): 14500 nM | GI50 (OVCAR-4 ovarian): 1980 nM | TGI (OVCAR-4 ovarian): > 26600 nM | GI50 (OVCAR-5 ovarian): 269 nM | TGI (OVCAR-5 ovarian): 1800 nM | GI50 (DU-145 prostate): 3250 nM | TGI (DU-145 prostate): > 100000 nM | GI50 (SK-OV-3 ovarian): 205 nM | TGI (SK-OV-3 ovarian): 412 nM | GI50 (SK-MEL-2 melanoma): 2870 nM | TGI (SK-MEL-2 melanoma): 10600 nM | GI50 (U251 CNS): 280 nM | TGI (U251 CNS): 840 nM | GI50 (HCT-116 colon): 417 nM | TGI (HCT-116 colon): > 100000 nM | GI50 (UACC-62 melanoma): 778 nM | TGI (UACC-62 melanoma): 2310 nM | GI50 (NCI-H23 lung): 101 nM | TGI (NCI-H23 lung): 559 nM | GI50 (IGROV1 ovarian): 20.8 nM | TGI (IGROV1 ovarian): 51.2 nM | GI50 (CAKI-1 renal): 149 nM | TGI (CAKI-1 renal): 884 nM | GI50 (T-47D breast): 1730 nM | TGI (T-47D breast): 4300 nM | GI50 (BT-549 breast): 500 nM | TGI (BT-549 breast): 1850 nM | GI50 (SNB-19 CNS): 1590 nM | TGI (SNB-19 CNS): 3550 nM | GI50 (UACC-257 melanoma): 3030 nM | TGI (UACC-257 melanoma): > 83600 nM | GI50 (A498 renal): 250 nM | TGI (A498 renal): 656 nM | GI50 (RXF 393 renal): 337 nM | TGI (RXF 393 renal): 1190 nM | GI50 (HT29 colon): 447 nM | TGI (HT29 colon): 2500 nM | GI50 (OVCAR-8 ovarian): 389 nM | TGI (OVCAR-8 ovarian): 4430 nM | GI50 (HS 578T breast): 525 nM | TGI (HS 578T breast): 3140 nM | GI50 (RPMI-8226 leukemia): 174 nM | TGI (RPMI-8226 leukemia): 550 nM | GI50 (ACHN renal): 205 nM | TGI (ACHN renal): 1670 nM | GI50 (COLO 205 colon): 1680 nM | TGI (COLO 205 colon): > 42700 nM | GI50 (SR leukemia): 21.6 nM | TGI (SR leukemia): 68.9 nM | GI50 (HCT-15 colon): 629 nM | TGI (HCT-15 colon): 2680 nM | GI50 (MDA-MB-231 breast): 117 nM | TGI (MDA-MB-231 breast): 596 nM | GI50 (786-0 renal): 24.1 nM | TGI (786-0 renal): 63.3 nM | GI50 (SN12C renal): 542 nM | TGI (SN12C renal): > 36700 nM | GI50 (NCI-H460 lung): 419 nM | TGI (NCI-H460 lung): 1690 nM
